According to patent publication US20250122502A1, “Bifunctional Molecules and Methods of Using Thereof” (FLAGSHIP PIONEERING, INC., priority 2021, published 2025):

Tested on: MYC expression in HEK293T cells
Assay: MYC expression by qPCR after RNAiMax transfection
Assay type: cell-based, human
Settings: 100 nM, 24 hours
Protocol: HEK293T cells were seeded at 30 k cells/well in a 96 well tissue culture vessel day before transfection. The next day cells were transfected with 400, 200, 100, 50 nM of PVT1 ASO1-JQ1 with Lipofectamine RNAiMax (ThermoFisher Cat #13778150). […] Transfected cells were allowed to recover and were harvested after 24 hours. MYC expression was measured by RNA level using qPCR analysis after transfection with each of the bi-functional molecule or control molecules. Cell samples for qPCR analysis were prepared by Cells to Ct 1 Step TaqMan Kit (ThermoFisher A25602) following manufacturer's recommendations. qPCR assays were performed using Cells to Ct qPCR master mix, gene specific TaqMan probe (ThermoFisher), and Cells to Ct cell lysate. Relative levels of MYC were normalized to β-actin as a stably expressed control. MYC TaqMan probe: […] ACTB TaqMan probe: […] During qPCR amplification, FAM fluorescence intensity for each target gene was recorded by QuantStudio7 qPCR instrument (ThermoFisher Scientific) as a measurement of the amount of double-stranded DNA produced during each PCR cycle. Ct values for each gene in each sample were computed by the instrument software based on the amplification curves, and used to determine relative expression values for target and β-actin in each sample.

| Substance | MYC expression change (in words) |
| --- | --- |
| PVT1-Scr1: partially scrambled PVT1 ASO1 (SEQ ID NO: 63) conjugated to JQ1 (antisense TGAAGTGGAATTCCAGTTG; listed as DNA, chemistry not fully specified) | less impact |
| PVT1-Scr4: partially scrambled PVT1 ASO1 (SEQ ID NO: 66) conjugated to JQ1 (antisense GTAAGTGGAATTCCATTGG; listed as DNA, chemistry not fully specified) | less impact |
